Reference: paper PMC7097682, “Safety and Pharmacokinetics of CXCR4 Peptide Antagonist, LY2510924, in Combination with Durvalumab in Advanced Refractory Solid Tumors” (Journal of Pancreatic Cancer, 2020)
One block for each compound: values may come before it. Where a SMILES comes first, the peptide text is derived from it. Bridges are numbered along the chain shown (N, C = ends). [ ]: non-standard residue; d: D form. 2Nal = N[C@@H](Cc1ccc2ccccc2c1)C(=O)O; Lys(iPr) = CC(C)NCCCC[C@H](N)C(=O)O

Tests used:
pancreatic cancer model = conditions: added to anti-PD-L1 monoclonal antibody regimen; cited from earlier work
[1] = tested on: syngeneic squamous cell carcinoma model; conditions: single agent or combination; no reference printed for the sentence; cited from earlier work
[2] = LY2510924 pharmacokinetics in plasma, noncompartmental analysis; conditions: for AUC(0-inf) / Cmax: n = 3, geometric mean (CV%)
Experimental: (§1) Blood samples were drawn from all patients for the assessment of LY2510924 in plasma and durvalumab concentrations in serum at prespecified time points. The PK of LY2510924 was assessed through intensive sampling, and the PK parameter estimates were calculated by standard noncompartmental methods of analysis. PK data for durvalumab were summarized by sampling time points, and a formal noncompartmental analysis was not conducted. Samples were analyzed using a validated liquid chromatography with tandem mass spectrometry. Summary statistics was tabulated for the PK parameters of LY2510924 and durvalumab by dose and study day.

clinical = conditions: human, in vivo, sc, t1/2
Experimental: as §1

patients = tested on: patients; set-up: method as in PMID 24727324; conditions: 30 mg/day SC, monotherapy; cited from earlier work
cancer xenograft models = conditions: cell lines that express high levels of CXCR4; cited from earlier work
[3] = Durvalumab serum concentrations by sampling time point; type: in vivo, human
Experimental: as §1

[4] = human, plasma, sc, Day 15, 20 mg/day SC
[5] = human, plasma, sc, Day 15, 30 mg/day SC

Compound: c1cc(CN2CCCNCCNCCCNCC2)ccc1CN1CCCNCCNCCCNCC1 [AMD3100]
effect on T cells and antitumor efficacy of anti-PD-L1 monoclonal antibody (pancreatic cancer model): T cell redistribution and rapid accumulation near tumors, enhancing the antitumor efficacy

PK variability on AUC ([2]; 20, 30 and 40 mg daily SC): 69%
PK variability on Cmax ([2]; 20, 30 and 40 mg daily SC): ~60%
mean apparent volume of distribution ([2]; 20, 30 and 40 mg daily SC, all nine patients): 59 L
CL/F ([2]; human, plasma, sc, 40 mg, mean apparent clearance, 20, 30 and 40 mg daily SC, all nine patients): 117 mL/min
AUC(0-inf) [2, 4]: 1960 ng·h/mL
AUC(0-inf) [2, 5]: 4320 ng·h/mL
Cmax ([2]; human, plasma, sc, Day 1, 20 mg/day SC, with durvalumab): 747 ng/mL
Cmax ([2]; human, plasma, sc, Day 1, 30 mg/day SC, with durvalumab): 682 ng/mL
Cmax ([2]; human, plasma, sc, Day 1, 40 mg/day SC, with durvalumab): 1860 ng/mL
Cmax [2, 4]: 367 ng/mL
Cmax [2, 5]: 847 ng/mL
Cmax ([2]; human, plasma, sc, Day 15, 40 mg/day SC): 1680 ng/mL
half-life (clinical): 5.11 h
Compound: CC(C)NCCCC[C@H](NC(=O)[C@H]1CCC(=O)N[C@@H](Cc2ccccc2)C(=O)N[C@@H](Cc2ccc(O)cc2)C(=O)N[C@@H](CCCCNC(C)C)C(=O)N[C@H](CCCNC(=N)N)C(=O)N[C@@H](Cc2ccc3ccccc3c2)C(=O)NCC(=O)N1)C(N)=O [LY2510924] (FY[Lys(iPr)][dR][2Nal]G[dE][Lys(iPr)]-NH2; lactam N-7)
antitumor activity [1]: minimal activity
patients with dose-limiting toxicity (grade 3 increase in ANC >25,000 cells/μL for >5 days) (patients): two
tumor growth and metastasis (cancer xenograft models): dose-dependent inhibition

Compound: durvalumab: selective, high-affinity, human immunoglobulin G1 monoclonal antibody that blocks PD-L1 binding to PD-1 and CD80
peak concentration, geometric mean ([3]; week 0, 1500 mg Q4W IV infusion over 60 min, n = 8, %CV 33.2%): 418 µg/mL
trough concentration, geometric mean ([3]; week 4, 1500 mg Q4W IV, n = 8, %CV 50.3%): 106 µg/mL
trough concentration, geometric mean ([3]; week 8, 1500 mg Q4W IV, n = 4, %CV 58.4%): 133 µg/mL
peak concentration, geometric mean ([3]; week 12, 1500 mg Q4W IV, n = 4, %CV 30.8%): 549 µg/mL
trough concentration, geometric mean ([3]; week 12, 1500 mg Q4W IV, n = 4, %CV 46.8%): 126 µg/mL
trough concentration, geometric mean ([3]; week 20, 1500 mg Q4W IV, n = 1): 74.9 µg/mL
